According to patent publication US11241442B2, “Methods of use for TRP channel antagonist-based combination cancer therapies” (President and Fellows of Harvard College, priority 2017, dated 2022):

Key:
TRPA1 [1] = molecular target: T1, TRPA1 (Homo sapiens, UniProt O75762); experiment: Ca2+ responses to carboplatin in HCC1569 cells; format: cell-based; details: 10 μM AP-18 or 300 nM A-967079
T1 construct: endogenous in cells; host or cells: HCC1569 breast cancer cells (2D culture or 3D spheroids; shGFP or shTRPA1 transduced)
T1 sequence (O75762 whole entry): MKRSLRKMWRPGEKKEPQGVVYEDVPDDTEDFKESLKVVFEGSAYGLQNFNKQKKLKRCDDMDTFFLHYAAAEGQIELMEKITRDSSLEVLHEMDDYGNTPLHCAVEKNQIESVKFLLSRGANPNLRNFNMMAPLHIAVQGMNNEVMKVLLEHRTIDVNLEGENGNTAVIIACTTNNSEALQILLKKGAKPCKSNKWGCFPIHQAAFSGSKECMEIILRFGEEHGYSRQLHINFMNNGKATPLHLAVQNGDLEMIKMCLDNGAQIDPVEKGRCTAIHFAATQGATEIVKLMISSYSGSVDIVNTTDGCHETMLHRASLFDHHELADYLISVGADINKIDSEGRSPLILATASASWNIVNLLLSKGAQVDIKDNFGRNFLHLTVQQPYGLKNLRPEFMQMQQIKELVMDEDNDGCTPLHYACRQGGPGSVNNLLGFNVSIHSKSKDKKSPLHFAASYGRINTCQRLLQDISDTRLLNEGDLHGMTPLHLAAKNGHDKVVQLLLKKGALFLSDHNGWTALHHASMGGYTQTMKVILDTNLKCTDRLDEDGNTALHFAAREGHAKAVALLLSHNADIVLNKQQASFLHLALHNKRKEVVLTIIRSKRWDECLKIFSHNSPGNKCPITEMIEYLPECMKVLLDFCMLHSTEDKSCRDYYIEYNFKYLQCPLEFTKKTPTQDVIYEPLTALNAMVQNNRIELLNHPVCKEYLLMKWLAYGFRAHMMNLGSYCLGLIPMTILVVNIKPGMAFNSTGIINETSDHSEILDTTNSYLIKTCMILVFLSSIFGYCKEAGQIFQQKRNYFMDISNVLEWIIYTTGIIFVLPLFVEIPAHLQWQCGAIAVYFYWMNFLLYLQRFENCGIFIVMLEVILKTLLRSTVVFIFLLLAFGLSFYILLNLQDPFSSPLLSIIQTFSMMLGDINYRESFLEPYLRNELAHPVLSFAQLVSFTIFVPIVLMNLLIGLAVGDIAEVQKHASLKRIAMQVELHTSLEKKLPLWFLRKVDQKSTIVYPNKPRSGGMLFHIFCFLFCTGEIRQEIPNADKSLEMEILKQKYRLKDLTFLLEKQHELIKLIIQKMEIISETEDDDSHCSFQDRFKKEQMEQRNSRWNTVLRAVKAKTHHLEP
Procedure: (§1) For the measurement of [Ca^2+]i levels in cells cultured in 2D or 3D (in Matrigel), cells were stained with 3.5 μM fura-2-AM (Life Technology) in the presence of 2.5 mM probenecid (Sigma) and 0.02% Pluronic F-127 (Sigma) for 45 min at 37° C. The fura-2 fluorescence was measured in HBS solution containing 1.25 mM probenecid at 37° C. Fluorescence images of the cells were acquired through the Eclipse Ti-E microscope with ORCA-R2 cooled CCD camera and analyzed with Metafluor. The 340:380-nm ratio images were obtained on a pixel-by-pixel basis and were converted to Ca^2+ concentrations by in vivo calibration using 5 μM ionomycin as described previously (Nishida et al., Biochem. Biophys. Res. Commun., 262:350-354, 1999). 3D images are shown as one section from midstructure. For the measurement of [Ca^2+]i levels in cells cultured in suspension, cell clumps were dissociated with trypsin and [Ca^2+]i levels were determined by using Fluo-4 NW Calcium Assay Kit (Molecular Probes). Cells were stained with Fluo-4 according to the manufacturer's instructions and subjected to flow cytometric analysis (FACSCalibur) using HBS as sheath fluid. [Ca^2+]i levels determined by flow cytometry are reported as mean fluorescence intensity expressed in arbitrary units. Time courses of [Ca^2+]i rises in 2D culture are representative of three independent experiments and averaged Δ[Ca^2+]i represents mean±SEM from the sum of three independent experiments. Fura-2 ratio images in 3D culture are representative of two independent experiments and averaged [Ca^2+]i in 3D culture represents mean±SEM from the sum of two independent experiments.

TRPA1 [2] = molecular target: T1, TRPA1; experiment: [Ca2+]i by fura-2 in HCC1569 spheroids; format: cell-based; details: AP-18, 300 nM A-967079 or 5 mM NAC
Procedure: as §1

MCF-10A acini = experiment: [H2O2]i by Hyper-2 in MCF-10A 3D acini; format: cell-based
Procedure: (§2) For the measurement of [H2O2]i levels in MCF-10A acini and HCC1569 spheroids, cells were transduced with a lentiviral vector encoding Hyper-2 or Hyper-2 (C199S). The Hyper-2 fluorescence was measured at 37° C. in HEPES-buffered saline (HBS) containing the following (in mM): 150 NaCl, 6 KCl, 1.2 MgSO4, 2 CaCl2, 11.5 glucose, and 25 HEPES (pH adjusted to 7.4 with NaOH). Fluorescence images of the cells were acquired through the Eclipse Ti-E microscope (Nikon) with ORCA-R2 cooled CCD camera (Hamamatsu Photonics) and analyzed with Metafluor image acquisition software (Molecular Devices). The 488:405-nm ratio images were obtained on a pixel-by-pixel basis. 3D images are shown as one section from midstructure. For the measurement of [H2O2]i levels in MCF-10A cells cultured in suspension, cell clumps were dissociated with trypsin and stained with 10 μM peroxy green-1 for 30 min at 37° C. Cells were then subjected to flow cytometric analysis (FACSCalibur; BD Biosciences). ROS levels determined by flow cytometry are reported as mean fluorescence intensity expressed in arbitrary units. Hyper-2 ratio images are representative from two independent experiments and averaged Hyper-2 ratio represents mean±SD from the sum of two independent experiments.

HCC1569 cells [3] = experiment: Live cell number and cell death under carboplatin in HCC1569 cells; format: cell-based; details: carboplatin 72 h
Procedure: For the measurements of live cell number and cell death under treatment with H2O2, diamide, or chemotherapies, cells were cultured on 96-well plates in the presence or absence of these drugs for indicated times and stained with 5 μM bisBenzimide H 33342 trihydrochloride (Hoechst; Sigma) and 5 μM propidium iodide (PI; Sigma) for 1 h at 37° C. Hoechst- and/or PI-positive cells were counted using a laser scanning cytometer, Acumen Cellista (TTPLabTech). Apoptotic cells induced by H2O2 treatment were measured by staining with Annexin V-Alexa Fluor® 488 conjugate (Life Technologies) and PI in Ca^2+-containing solution (10 mM HEPES pH 7.4, 140 mM NaCl; 2.5 mM CaCl2), followed by flow cytometric measurement of fluorescence using a FACSCalibur. Flow cytometry plots are representative of three independent experiments. For the counting of viable cells cultured in suspension, cell clumps were dissociated with trypsin and stained with trypan blue. Viable cells were counted using the Countless Automated Cell Counters (Thermo Fisher Scientific). For the measurement of percentage of dead cells cultured in suspension, cells were cultured on poly HEMA-coated 96-well plates and stained with 5 μM Hoechst and 5 μM PI for 1 h at 37° C. without enzymatic dissociation of cell clumps. Hoechst- and/or PI-positive areas were measured using Acumen Cellista. Apoptotic cells induced by detachment were measured by staining with 5 μM Hoechst and 5 μM of CellEvent™ Caspase-3/7 Green Detection Reagent (Thermo Fisher Scientific) for 1 h at 37° C. without enzymatic dissociation of cell clumps. Hoechst- and/or CellEvent™ Caspase-3/7 Green Detection Reagent-positive areas were measured using Acumen Cellista. For the cell cycle analysis, enzymatically dissociated cells were fixed with ice-cold 70% EtOH for at least 30 min at 4° C., washed three times with PBS at 4° C., resuspended in PBS, treated with 100 μg/ml RNase A (Sigma), and stained with 50 μg/ml PI. The stained samples were subjected to flow cytometric analysis (FACSCalibur).

TRPA1 [4] = experiment: [Ca2+]i by fura-2 in TRPA1-expressing MCF-10A 3D acini; format: cell-based; details: inner ECM-deprived region of MCF-10A acini
Procedure: as §1

HCC1569 cells [5] = experiment: Soft agar anchorage-independent growth of HCC1569 cells; format: cell-based
Procedure: (§3) Cells were added to the regular MCF-10A or HCC1569 growth media (±AP-18, A-967079, or Trolox) plus 0.4% low-melt agarose (Sigma) and layered onto a bed of growth media plus 0.5% low-melt agarose. Cells were fed every 4 days with growth media (±AP-18, A-967079, or Trolox) plus 0.4% low-melt agarose. At the indicated times, viable colonies were stained with iodonitrotetrazolium chloride (Sigma). Colony number and colony size were determined using ImageJ. Images shown are representative of at least three independent experiments.

HCC1569 spheroids = experiment: [H2O2]i by Hyper-2 in HCC1569 spheroids; format: cell-based; details: AP-18, 300 nM A-967079 or 5 mM NAC
Procedure: as §2

[6] = system: MCF-10A cells expressing HER2; experiment: Soft agar colony formation of MCF-10A cells expressing HER2; format: cell-based
Procedure: as §3

[7] = system: EL-12-58 xenograft tumors; experiment: EL-12-58 xenograft tumor growth in NRG mice; format: in vivo
[8] = in vivo; cited from earlier work
HCC1569 cells [9] = details: cited from earlier work
HCC1569 cells [10] = experiment: HCC1569 xenograft tumor growth in NRG mice; format: in vivo
Procedure: All animal studies were performed according to protocols approved by the Institutional Animal Care and Use Committee, the Standing Committee on Animals at Harvard University. One million HCC1569 cells stably expressing either TRPA1 or GFP (control) shRNAs were injected into cleared mammary fatpads of 8-week-old female NOD-Rag1^null IL2rg^null (NRG) mice. Tumor volume (mm^3) was monitored by caliper measurements in two perpendicular dimensions (the formula: (d^2×D)/2, where d and D represent the shortest and longest diameters, respectively) at the indicated time points. After tumors reached 3 to 5 mm in diameter, animals were randomized into the following treatment arms: (i) 37.5 mg/kg carboplatin or (ii) its vehicle (H2O) administrated via intraperitoneal injection for HCC1569 cell-transplanted animals; (i) oral administration of 30.0 mg/kg AM-0902, (ii) intraperitoneal administration of 37.5 mg/kg carboplatin, (iii) oral administration of 30.0 mg/kg AM-0902 plus intraperitoneal administration of 37.5 mg/kg carboplatin, or (iv) oral administration of 1% Tween 80/2% HPMC/97% water/methanesulfonic acid pH 2.2 (vehicle for AM-0902) plus intraperitoneal administration of H2O (vehicle for carboplatin) for EL-12-58 cell-transplanted animals. Power calculations are based on the standard deviation and effect size from pilot experiments in HCC1569 cells. […]
Unstained breast cancer and normal breast tissue arrays were purchased from US Biomax (BR1504a for breast tumors, BN08111 for normal breast tissues). […] Tumor slides stained for TRPA1, blinded and were evaluated by light microscopy and scored by a veterinary pathologist. Images of tissue sections were captured at 4× magnification to create a merged image of the entire section and at 20× magnification for quantification of cleaved caspase-3-positive nuclei, using a Olympus VS120 Slide Scanner. […] Relative apoptosis was quantified by determining the percentage of cleaved caspase-3-positive cells from more than five random fields, per section, from each tumor in the group, and normalized to the shGFP-expressing tumors treated with vehicle. […]

[11] = Weight loss of EL-12-58 xenograft animals; format: in vivo, mice; details: mean±SD
Procedure: All animal studies were performed according to protocols approved by the Institutional Animal Care and Use Committee, the Standing Committee on Animals at Harvard University. One million HCC1569 cells stably expressing either TRPA1 or GFP (control) shRNAs were injected into cleared mammary fatpads of 8-week-old female NOD-Rag1^null IL2rg^null (NRG) mice. Tumor volume (mm^3) was monitored by caliper measurements in two perpendicular dimensions (the formula: (d^2×D)/2, where d and D represent the shortest and longest diameters, respectively) at the indicated time points. After tumors reached 3 to 5 mm in diameter, animals were randomized into the following treatment arms: (i) 37.5 mg/kg carboplatin or (ii) its vehicle (H2O) administrated via intraperitoneal injection for HCC1569 cell-transplanted animals; (i) oral administration of 30.0 mg/kg AM-0902, (ii) intraperitoneal administration of 37.5 mg/kg carboplatin, (iii) oral administration of 30.0 mg/kg AM-0902 plus intraperitoneal administration of 37.5 mg/kg carboplatin, or (iv) oral administration of 1% Tween 80/2% HPMC/97% water/methanesulfonic acid pH 2.2 (vehicle for AM-0902) plus intraperitoneal administration of H2O (vehicle for carboplatin) for EL-12-58 cell-transplanted animals. Power calculations are based on the standard deviation and effect size from pilot experiments in HCC1569 cells. The sample size of seven mice per group provides greater than 95% power to detect a ˜80% difference in change in tumor volume between control and shTRPA1-treated cells with a two-sided type I error rate of 5%. Averaged tumor volume represents mean±SEM.

TRPA1 [12] = molecular target: T1, TRPA1; experiment: [Ca2+]i by Fluo-4 flow cytometry in ECM-detached TRPA1-expressing MCF-10A cells; format: cell-based; details: 1 mM NAC; 24 h after plating in non-adherent plates
Procedure: as §1, with “Time courses of [Ca^2+]i rises in 2D culture are representative of three independent experiments and averaged Δ[Ca^2+]i represents mean±SEM from the sum of three independent experiments. Fura-2 ratio images in 3D culture are representative of two independent experiments and averaged [Ca^2+]i in 3D culture represents mean±SEM from the sum of two independent experiments.” left out

MCF-10A cells = experiment: [H2O2]i by peroxy green-1 flow cytometry in ECM-detached MCF-10A cells; format: cell-based; details: 1 mM NAC; 24 h after plating in non-adherent plates
Procedure: as §2

CCC(=N\O)/C(C)=C/c1ccc(F)cc1 [A-967079]
[Ca2+]i rises upon carboplatin treatment (TRPA1 [1]): significantly suppressed | oscillatory Ca2+ responses upon carboplatin treatment (TRPA1 [1]): significantly suppressed | elevated [Ca2+]i of inner cells of spheroids (TRPA1 [2]): suppressed | increase in [H2O2]i (Hyper-2) in inner ECM-deprived cells (MCF-10A acini): unaffected | cell death in response to carboplatin treatment (HCC1569 cells [3]): enhanced | live cell number in response to carboplatin treatment (HCC1569 cells [3]): substantially suppressed | TRPA1- or E681K-induced [Ca2+]i rises (TRPA1 [4]): abolished | anchorage-independent growth (number and average size of colonies) (HCC1569 cells [5]): impaired | increase in [H2O2]i (Hyper-2) in inner region of spheroids (HCC1569 spheroids): unaffected

Cc1c(C)c2c(c(C)c1O)CCC(C)(C(=O)O)O2 (stereo not drawn) [Trolox]
colony number and size ([6]; Trolox treatment): strongly increased | TRPA1-induced increase in number and average size of colonies ([6]; wild-type or E681K TRPA1 expression): eliminated

Cn1cnc2ncn(Cc3nc(CCc4ccc(Cl)cc4)no3)c(=O)c21 [AM-0902]
tumor volume / tumor growth ([7]; AM-0902 30.0 mg/kg oral twice daily, carboplatin 37.5 mg/kg intraperitoneal): reduced | tumor mass ([7]; at end point, AM-0902 30.0 mg/kg oral twice daily, carboplatin 37.5 mg/kg intraperitoneal): reduced | live tumor cell area relative to total area (H&E) ([7]; compared with vehicle or single carboplatin treatment): reduced | plasma half-life (T1/2) [8]: 2.8 h

N.N.[Cl][Pt][Cl] [cisplatin]
Resistance rank among 893 cancer cell lines (HCC1569 cells [9]): 45 | resistance z-score (HCC1569 cells [9]): 1.54

N.N.O=C([O-])C1(C(=O)[O-])CCC1.[Pt+2] [carboplatin]
tumor response to carboplatin (HCC1569 cells [10]; tumors expressing shGFP (control), 37.5 mg/kg carboplatin intraperitoneal twice a week): resistant | tumor growth after carboplatin treatment (HCC1569 cells [10]; tumors expressing shTRPA1, 37.5 mg/kg carboplatin intraperitoneal twice a week): significant reduction | apoptosis (cleaved caspase-3 staining of tumor sections) (HCC1569 cells [10]; tumors expressing shTRPA1, carboplatin treatment): increased | averaged weight loss ([11]; day 26): 3.94±1.02% | averaged weight loss ([11]; day 29): 7.01±2.80% | averaged weight loss ([11]; day 32): 10.3±3.36%

CC(=O)N[C@@H](CS)C(=O)O [NAC, N-Acetyl-L-cysteine]
elevated [Ca2+]i of inner cells of spheroids (TRPA1 [2]): suppressed | increase in [H2O2]i (Hyper-2) in inner ECM-deprived cells (MCF-10A acini): abolished | TRPA1-mediated chemoresistance to carboplatin (HCC1569 cells [3]; 5 mM NAC): largely eliminated | detachment-induced TRPA1-dependent increase in [Ca2+]i (TRPA1 [12]): abolished | TRPA1- or E681K-induced [Ca2+]i rises (TRPA1 [4]): abolished | detachment-induced increase in [H2O2]i (MCF-10A cells): suppressed | increase in [H2O2]i (Hyper-2) in inner region of spheroids (HCC1569 spheroids): abolished
